Assay results published in patent US7662574B2, “Use of a G protein-coupled receptor and its cognizant ligand in the identification of compounds that affect prolactin secretion” (Takeda Pharmaceutical Company Limited, priority 1999, dated 2010).

What was measured:
rOT7T022L = biological target: T1, rOT7T022L (Rattus norvegicus, UniProt Q9EP86); test: Site sensor (Cytosensor) acidification rate in rOT7T022L receptor-expressing CHO cells; assay type: cell-based; details: peptide exposed to cells for 7 minutes and 2 seconds; FIG. 8
T1 construct: expressed in transfected cells
Protocol: The rOT7T022L receptor-expressing CHO cells obtained in Example 7 (2) above were inoculated on capsules for site sensor in 2.7×10^5 cells/capsule. After incubation overnight, the site sensor was mounted to a workstation for the site sensor. A medium for assay (low buffered RMP11640 medium supplemented with 0.1% bovine serum albumin), which was set in the flow path of the site sensor, was supplied to the cells in a pump cycle of ON (80 seconds) and OFF (40 seconds). A rate of change in […] from 8 to 30 seconds after the pump stopped was calculated as an acidification rate. A change of the acidification rate with passage of time was monitored; when stable reading was obtained, the flow path was switched to expose each peptide to the cells for 7 minutes and 2 seconds. In the acidification rate of each well, the data for 3 cycles immediately before the peptide exposure was made 100% for standardization.

Human 0T7T022 receptor = biological target: T2, Human 0T7T022 receptor (Homo sapiens, UniProt Q9GZQ6); test: Effect of pertussis toxin on cAMP production inhibiting activity in human 0T7T022 receptor-expressing CHO cells; assay type: cell-based; details: 0.1 μM peptide, 1 μM forskolin, 100 ng/ml pertussis toxin overnight; FIG. 15
T2 construct: expressed in transfected cells; host or cells: CHO cells
Protocol: Human 0T7T022 receptor-expressing CHO cells obtained in Example 21 were inoculated on a 24-well plate in a concentration of 1×10^5 cells/well. After culturing overnight, the medium was exchanged by a medium added with 100 ng/ml pertussis toxin (Sigma, Inc.) or with a control medium followed by further incubation overnight. The cells were rinsed with Hanks' buffer (HBSS) supplemented with 0.05% BSA and 0.2 mM IBMX and then preincubated at 37° C. for 30 minutes in the same buffer. Next, the cells were incubated at 37° C. for 30 minutes after the buffer was exchanged by Hanks' buffer alone (HBSS) supplemented with 0.05% BSA and 0.2 mM IBMX (black column), or by HBSS further added with 1 μM forskolin only (white column), or by HBSS added with 1 μM forskolin and 0.1 μM RFRP-1-12 (peptide having the 81 (Met) to 92 (Phe) amino acid sequence in SEQ ID NO: 1) (hatched column). After completion of the incubation, cAMP in the cells of each well was extracted and quantified according to the method of cAMP EIA Kit (Amersham, Inc.).

[1] = test system: pituitary hormone level in plasma; test: Pituitary hormone level in plasma after administration into the third ventricle; assay type: in vivo, Wistar rats; details: for plasma prolactin level: vs PBS control
Protocol: The effect of the peptide shown by SEQ ID NO: 39 administered into the third ventricle on pituitary hormone level in plasma, was explored. Mature male Wistar rats (body weights at operation: about 290-350 g) were anesthetized with 50 mg/kg of pentobarbital, i.p., and each rat was immobilized in a rat brain stereotaxic apparatus. The incisor bar was set 3.3 mm lower from the interaural line. The skull was exposed, and using a dental drill a hole was made on the bone for implantation of a guide cannula.
In addition, an anchor screw was buried in one position around the hole. A stainless-steel guide cannula, AG-12 (0.4 mm inner diameter, 0.5 mm outer diameter, EICOM Co., Ltd.), was inserted in such a manner that its tip would be situated in the upper part of the third ventricle. Following the atlas of Paxinos and Watson (1986), the stereotaxic coordinates were set to AP: +7.2 mm (from the interaural line), L: 0.0 mm, and H: +2.0 mm (from the interaural line). The guide cannula was secured to the skull using instant adhesive, dental cement and an anchor screw. A stainless-steel dummy cannula, AD-12 (0.35 mm outer diameter, EICOM Co., Ltd.), was then passed through the guide cannula and locked in position with a cap nut (EICOM Co., Ltd.). After the operation the rats were housed in individual cages and kept for at least a week for postoperative recuperation before starting the experiment.
The operated rat was anesthetized with 50 mg/kg of pentobarbital, i.p., and immobilized in the dorsal position on a necropsy pad. A catheter (SP35, Natsume Seisakusho Co., Ltd.) was inserted into the right jugular vein. On the following day, 400 μl of blood was drawn through the jugular vein catheter. To prevent clotting, a syringe was filled beforehand with 20 μl of saline containing 200 U/ml of heparin. The cap nut and dummy cannula were removed from the rat skull and instead, a stainless steel microinjection cannula AMI13 (0.17 mm inner diameter, 0.35 mm outer diameter, EICOM Co., Ltd.) connected to a Teflon tube (50 cm long, 0.1 mm inner diameter, 0.4 mm outer diameter, EICOM Co., Ltd.) was inserted. The length of the microinjection cannula was adjusted beforehand so that its tip would be exposed from the guide cannula by 1 mm. One end of the Teflon tube was connected to a microsyringe pump and either PBS or the peptide shown by SEQ ID NO: 39 dissolved in PBS was injected, in a total volume of 10 μl, into the third ventricle at a flow rate of 5 μl/min. After a 1 minute standby time following the infusion, the microinjection cannula was disconnected and the dummy cannula was locked in position again with a cap nut. Immediately before the initiation of intraventricular administration and 10, 20, 30, 40, and 60 minutes after the initiation of administration, 400 μl aliquots of blood were collected via the cannula inserted into the jugular vein. Each blood sample collected was centrifuged (5,000 rpm, 10 min.) with a high-speed refrigerated microcentrifuge (MR-150, Tommy Seiko) and the supernatant (plasma) was recovered. The amount of prolactin in the plasma was determined by radioimmunoassay.
The results were shown in terms of a mean±S.E.M. To examine if there was a significant difference between the group administered with the peptide shown by SEQ ID NO: 39 dissolved in PBS and the control group administered with PBS alone, Student's t-test was used. According to the two-tailed test, the risk percentage of 5% or less was assumed to be statistically significant.

[2] = 10 nmols into the third ventricle

T1 sequence (Q9EP86 whole entry): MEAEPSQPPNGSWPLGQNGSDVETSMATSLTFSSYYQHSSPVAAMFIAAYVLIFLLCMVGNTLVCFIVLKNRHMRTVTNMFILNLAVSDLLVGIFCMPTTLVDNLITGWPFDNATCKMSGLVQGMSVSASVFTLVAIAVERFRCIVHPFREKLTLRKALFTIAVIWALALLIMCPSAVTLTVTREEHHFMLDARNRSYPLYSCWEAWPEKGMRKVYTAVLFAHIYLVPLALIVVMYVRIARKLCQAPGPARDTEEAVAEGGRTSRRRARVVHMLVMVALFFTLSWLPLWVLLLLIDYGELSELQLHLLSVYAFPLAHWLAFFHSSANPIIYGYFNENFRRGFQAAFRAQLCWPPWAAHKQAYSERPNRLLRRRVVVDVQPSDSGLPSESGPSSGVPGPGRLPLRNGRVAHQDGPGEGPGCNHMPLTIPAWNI
T2 sequence (Q9GZQ6 whole entry): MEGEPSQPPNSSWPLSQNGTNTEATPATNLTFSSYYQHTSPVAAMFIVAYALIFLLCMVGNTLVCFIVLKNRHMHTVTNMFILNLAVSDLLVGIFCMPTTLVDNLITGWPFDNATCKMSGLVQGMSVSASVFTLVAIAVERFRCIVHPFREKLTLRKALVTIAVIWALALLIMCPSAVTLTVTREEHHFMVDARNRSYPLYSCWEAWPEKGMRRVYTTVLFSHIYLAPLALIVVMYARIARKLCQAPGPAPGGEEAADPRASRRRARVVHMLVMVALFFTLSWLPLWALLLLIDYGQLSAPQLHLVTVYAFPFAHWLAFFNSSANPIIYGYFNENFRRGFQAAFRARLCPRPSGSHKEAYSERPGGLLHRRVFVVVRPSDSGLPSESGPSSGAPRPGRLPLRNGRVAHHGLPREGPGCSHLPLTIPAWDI

Compound	reaction of rOT7T022L-expressing CHO cells (acidification rate) (rOT7T022L)	cAMP production inhibiting activity in cells treated with pertussis toxin (Human 0T7T022 receptor)	level of ACTH in plasma [1, 2]	level of GH in plasma [1, 2]	level of LH in plasma [1, 2]	level of TSH in plasma [1, 2]	plasma prolactin level ([1]; 10 minutes after 10 nmols into the third ventricle)	plasma prolactin level ([1]; 20 minutes after 10 nmols into the third ventricle)	plasma prolactin level ([1]; 30 minutes after 10 nmols into the third ventricle)	plasma prolactin level ([1]; 40 minutes after 10 nmols into the third ventricle)	plasma prolactin level ([1]; 60 minutes after 10 nmols into the third ventricle)
CC(C)C[C@H](NC(=O)[C@H](CC(N)=O)NC(=O)[C@@H]1CCCN1C(=O)[C@@H](N)C(C)C)C(=O)N1CCC[C@H]1C(=O)N[C@@H](CCC(N)=O)C(=O)N[C@@H](CCCNC(=N)N)C(=O)N[C@@H](Cc1ccccc1)C(N)=O	strongly showed dose-dependent reaction	–	–	–	–	–	–	–	–	–	–
H-MPHSFANLPLRF-NH2	strongly showed dose-dependent reaction	lost	none showed any significant change	none showed any significant change	none showed any significant change	none showed any significant change	tended to increase	significantly increased	significantly increased	significantly increased	a significant difference was noted
